Literature values, collected in patent US9125860B2, “Phosphate free oral care compositions based on magnolia antibacterial agent” (Colgate-Palmolive Company, priority 2010, dated 2015).

Tested on: S. mutans, F. nucleatum, V. parvula, A. naslundii, P. gingivitis
Conditions: representative oral bacteria; values not given

Molecule | bactericidal properties in MIC test, in words
propylhonokiol | demonstrated bactericidal properties
C=CCc1ccc(O)c(-c2cc(CC=C)ccc2O)c1 [magnolol] | demonstrated bactericidal properties
CC(C)c1ccc(O)c(-c2cc(C(C)C)ccc2O)c1 [isopropylmagnolol] | demonstrated bactericidal properties
CCCCc1ccc(O)c(-c2cc(CCCC)ccc2O)c1 [butylmagnolol] | demonstrated bactericidal properties
CCCc1ccc(O)c(-c2cc(CCC)ccc2O)c1 [tetrahydromagnolol] | demonstrated bactericidal properties
CCCc1ccc(O)c(-c2ccc(O)c(CCC)c2)c1 [tetrahydrohonokiol] | demonstrated bactericidal properties
isopropylhonokiol | demonstrated bactericidal properties
propylmagnolol | demonstrated bactericidal properties
C=CCc1ccc(O)c(-c2ccc(O)c(CC=C)c2)c1 [honokiol] | demonstrated bactericidal properties
butylhonokiol | demonstrated bactericidal properties
